How the values were obtained:
DncV = DncV (Vibrio cholerae, UniProt Q9KVG7); assay: biochemical
CapV = CapV (Vibrio cholerae, UniProt Q9KVG8); conditions: 50 mM Na3PO4, pH 7.4, 300 mM NaCl, 10% glycerol, 37 °C
Sequence of CapV (Q9KVG8 whole entry, looked up): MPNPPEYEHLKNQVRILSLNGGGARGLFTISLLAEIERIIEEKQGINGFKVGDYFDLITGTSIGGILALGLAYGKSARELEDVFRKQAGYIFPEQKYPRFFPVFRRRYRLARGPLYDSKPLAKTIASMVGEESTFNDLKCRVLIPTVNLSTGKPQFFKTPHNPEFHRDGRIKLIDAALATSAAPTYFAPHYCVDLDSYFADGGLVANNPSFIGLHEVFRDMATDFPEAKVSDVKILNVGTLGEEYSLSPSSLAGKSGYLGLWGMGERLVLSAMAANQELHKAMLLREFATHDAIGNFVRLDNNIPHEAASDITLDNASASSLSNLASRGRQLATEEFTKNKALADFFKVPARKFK

Sequence of DncV (Q9KVG7 whole entry, looked up): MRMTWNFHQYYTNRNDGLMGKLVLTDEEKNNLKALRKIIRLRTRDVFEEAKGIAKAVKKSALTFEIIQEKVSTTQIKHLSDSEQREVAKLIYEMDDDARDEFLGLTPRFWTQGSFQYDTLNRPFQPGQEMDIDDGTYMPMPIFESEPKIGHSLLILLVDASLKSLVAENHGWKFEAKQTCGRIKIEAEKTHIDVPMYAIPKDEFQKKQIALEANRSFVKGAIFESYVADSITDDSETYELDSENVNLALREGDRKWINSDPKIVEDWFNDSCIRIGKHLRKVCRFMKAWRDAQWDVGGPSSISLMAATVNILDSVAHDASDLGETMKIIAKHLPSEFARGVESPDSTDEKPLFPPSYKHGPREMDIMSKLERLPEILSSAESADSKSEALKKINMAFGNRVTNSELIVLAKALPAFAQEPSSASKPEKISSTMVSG

With `Nc1nc2c(ncn2[C@@H]2O[C@H](COP(=O)(O)OP(=O)(O)OP(=O)(O)O)[C@@H](O)[C@H]2O)c(=O)[nH]1` [GTP] the Kd (DncV) was 2.63 µM.

For `CCCC(=O)Oc1ccc2nc3ccc(=O)cc-3oc2c1` [Resorufin butyrate], the “fluorogenic phospholipase assay (ex 550 / em 591 nm)” value (CapV) was “phospholipase activity of the proteins CapV and CapV^S62A was detected using the fluorescent substrate Resorufin”.

`Nc1nc2c(c(=O)[nH]1)N[C@@H](CNc1ccc(C(=O)N[C@@H](CCC(=O)O)C(=O)O)cc1)CN2` [THF, tetrahydrofolate] showed a Kd (DncV) of 3.59 µM.

Source: publication PMC12802263 (mBio, 2025)
